Molecular target: T1, P protein from T. maritima (Thermotoga maritima, UniProt Q9X1H4)
T1 construct: GST (cleaved yes); made in house; host or cells: E. coli BL21(DE3)pLysS
T1 sequence (Q9X1H4 1-117): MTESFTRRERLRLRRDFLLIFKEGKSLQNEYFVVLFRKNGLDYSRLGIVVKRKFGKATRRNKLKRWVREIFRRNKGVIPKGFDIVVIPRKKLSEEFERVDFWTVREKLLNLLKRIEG
Assay: Biolayer interferometry binding to immobilized His-tagged P protein
Settings: BLI, P protein on Ni-NTA, 1:1 Langmuir model
Procedure: Immobilization of the His-tagged P protein from T. maritima at 0.05 mg/ml (3.4 μM) was performed on Ni-NTA biosensors. For the initial binding tests to the P protein, a compound concentration of 1 mM was used. Periods for each step of the assay were as follows: immobilization (400 s), wash (100 s), baseline establishment (100s), association (250 s), dissociation (250 s). For each titration curve, […] were used corresponding to the 125, 62.5, 31.25, 15.6 and 7.8 μM compound concentrations. Control biosensors were used to subtract non-specific binding of compounds to the biosensor surface. […] Kinetic binding parameters were calculated using Data Analysis 8.2 (ForteBio, Inc.). […]
Figure 5. […] Association and dissociation of the 5′ RNA leader to the P protein (TmP) is measured over time. […] P protein was immobilized on Ni-NTA biosensors after which its association and dissociation from indicated compounds were monitored. […] (C) Location of purpurin (green) on the T. maritima P protein as determined by X-ray crystallography (PDB code: 6MAX; see Supplementary Figure S19 and Supplementary Table S2). […]
Supplementary Figure 15. […] The pre-tRNA in buffer HAAMD (20 mM HEPES pH 7.4, 100 mM ammonium acetate, 10 mM MgCl2, 5% DMSO or 5% PEG 200) was measured against RNase P in concentrations ranging from 62.5 to 7.8 nM in a two-fold dilution series. […]

SMILES: O=C1c2ccccc2C(=O)c2c(O)c(O)cc(O)c21 [Purpurin, 1,2,4-trihydroxyanthraquinone]
- Kd: 6.8 µM
